The record followed here is publication PMC4522710, “A putative ATPase mediates RNA transcription and capping in a dsRNA virus” (eLife, 2015).

The experiment has as its target T1, CPV turret protein (TP) (Bombyx mori cypovirus 1, UniProt Q914N6).
T1 construct: native full-length protein in intact virions purified from polyhedra; GTase, bridge, MT-1 and MT-2 domains; pentameric turret
Description: cryoEM structure of virion complex. As to conditions: 10 mM MgCl2, pH 8.0, 31 °C. Type of experiment: binding.

Consider `Nc1nc2c(ncn2[C@@H]2O[C@H](COP(=O)(O)OP(=O)(O)OP(=O)(O)O)[C@@H](O)[C@H]2O)c(=O)[nH]1` [GTP], for which the “cryoEM structure of virion complex” value (2 mM GTP, GTase site (all four structures), also putative ATPase site with SAM without ATP (3JB2)) is “In G-CPV, one GTP binds to the GTase site of GTase domain”.
Turning to `C[S+](CC[C@H](N)C(=O)O)C[C@H]1O[C@@H](n2cnc3c(N)ncnc32)[C@H](O)[C@@H]1O` (some centres unmarked) [SAM], the “cryoEM structure of virion complex” value (1 mM SAM, MT-2 site (SAM alone, 3JB1), MT-1 and MT-2 sites with ATP and/or GTP present (3JAY, 3JB2, 3JB3)) is reported as “In S-CPV, one SAM binds to the MT-2 domain of each TP”.
